Laboratory results: patent US4251520A, “Glucofuranose derivatives” (priority 1976, dated 1981)

What was measured:
edema induced by dextran = assay: Anti-inflammatory activity, dextran-induced edema; type: in vivo, rat; conditions: po; 500 mg/kg p.o. rat; read-out: % inhibition of edema induced by dextran
Description: (§1) Pharmacological tests were carried out to evaluate the acute toxicity, anti-inflammatory and capillary permeability action, antipyretic, analgesic and anti-spasmodic in vitro action.

Antipyretic activity = type: in vivo, rat; conditions: for Antipyretic activity (potency in comparison with aspirin = 100): 400 mg/kg p.o. rat; for Antipyretic action (in words): rat, in vivo
Description: as §1

in vivo = conditions: mouse, in vivo, po
[1] = Analgesic activity, protection from writhing; type: in vivo, mouse; conditions: po; 500 mg/kg p.o. mouse; read-out: Analgesic activity, protection from writhing %
Description: as §1

[2] = tested on: edema induced by carrageenan; assay: Anti-inflammatory activity, carrageenin-induced oedema; type: in vivo, rat; conditions: po; 500 mg/kg p.o. rat; read-out: % inhibition of edema induced by carrageenan
Source text: Beginning, therefore, with D-glucose, we have prepared 1,2:5,6-di-O-isopropylidene-α-D-glucofuranose (II): [drawing 2] as well as 1,2-O-isopropylidene-α-D-glucofuranose and 1,2-O-isopropylidene-3,5,6-tri-O-benzyl-α-D-glucofuranose (1; Glen W. L., Myers G. S., Grant G. A., J. Chem. Soc., 2568/1951; (2) Meyer A. S., Reichstein T., Helv. Chim. Acta, 29, 139/1946; (3) Huber G., Rossi A., Helv. Chim. Acta, 51, 1185/1968) and have compared these compounds with (I) for anti-inflammatory activity against carrageenin-induced oedema (500 mg/kg, p.o. in rats).

[3] = Analgesic activity, hot plate test; type: in vivo, mouse; conditions: po; 500 mg/kg p.o. mouse; hot plate test; read-out: Analgesic activity, increase of reaction time %
Description: as §1

spasm by histamine = assay: Antispasmodic activity in vitro, spasm by histamine
Description: as §1

spasm by acetylcholine = assay: Antispasmodic activity in vitro, spasm by acetylcholine
Description: as §1

capillary permeability = assay: Capillary permeability test; conditions: 500 mg/kg p.o. mouse
Description: as §1

[4] = tested on: edema induced by formalin; assay: Anti-inflammatory activity, formalin-induced edema; type: in vivo, rat; conditions: po; 500 mg/kg p.o. rat; read-out: % inhibition of edema induced by formalin
Description: as §1

granuloma = assay: Granuloma cotton pellet test; conditions: Rattus norvegicus, po, read-out: % inhibition of granuloma
Description: as §1

[5] = tested on: oedema induced by carrageenin, dextran and formalin; assay: Anti-inflammatory activity tests (oedema by carrageenin, dextran and formalin); type: in vivo; conditions: rat
Description: as §1

SMILES | inhibition in vivo at 500 mg/kg (edema induced by dextran) [%] | Antipyretic activity (potency in comparison with aspirin = 100) (Antipyretic activity) [%] | LD50 (in vivo) [mg/kg] | inhibition in vivo at 500 mg/kg [1] [%] | inhibition in vivo at 500 mg/kg [2] [%] | change in vivo at 500 mg/kg [3] [%] | Antispasmodic activity in vitro, ED50, inhib. of spasm by histamine (spasm by histamine) [µg/mL] | Antispasmodic activity in vitro, ED50, inhib. of spasm by acetylcholine (spasm by acetylcholine) [µg/mL] | Capillary permeability, decrease % (capillary permeability) [%] | inhibition in vivo at 500 mg/kg [4] [%] | Antipyretic action (in words) (Antipyretic activity) | inhibition in vivo at 200 mg/kg (granuloma) [%] | Inhibition of spasms induced by histamine (in words) (spasm by histamine) | Anti-inflammatory potency compared with aspirin and phenylbutazone (in words) [5] | Inhibition of oedema induced by carrageenin, dextran and formalin, compared with (I) (in words) [5] | Activity against spasms produced by acetylcholine (in words) (spasm by acetylcholine)
CCOC1C(C2COC(C)(C)O2)OC2OC(C)(C)OC21 (stereo not shown) [IV] | 14 | 31 | 2000 | 0 | 37 | 30 | 150 | > 100 | 42 | 33 |  |  |  |  |  | 
CCCCOC1C(C2COC(C)(C)O2)OC2OC(C)(C)OC21 (stereo not shown) [VI] | 13 | 51 | 3000 | 0 | 33 | 40 | > 100 | > 100 | 57 | 24 | retained |  |  |  |  | 
CCCOC1C(C2COC(C)(C)O2)OC2OC(C)(C)OC21 (stereo not shown) [V] | 0 | 37 | 1000 | 20 | 28 | 10 | > 100 | > 100 | 53 | 0 |  |  |  |  |  | 
CC1(C)OCC(C2OC3OC(C)(C)OC3C2OCC(=O)O)O1 [XIII, 3-Carboxymethyl-1,2:5,6-di-O-isopropylidene-α-D-glucofuranose] | 4 | 5 | > 4000 | 0 | 10 | 0 | > 100 | > 100 | 14 | 18 |  |  |  |  |  | 
CN(C)CCOC1C(C2COC(C)(C)O2)OC2OC(C)(C)OC21 [XIV, 3-(2-Dimethylaminoethyl)-1,2:5,6-di-O-isopropylidene-α-D-glucofuranose] | 54 | 43 | 1500 | 20 | 62 | 10 | 100 | > 100 | 35 | 28 | retained | 0 |  |  |  | 
CC1(C)OCC(C2OC3OC(C)(C)OC3C2OCCN2CCCCC2)O1 (stereo not shown) [XIX] | 56 | 55 | > 1000 |  | 64 |  |  |  | 17 | 28 | retained |  |  |  |  | 
CC1(C)OCC(C2OC3OC(C)(C)OC3C2OCCN2CCCC2)O1 (stereo not shown) [XVIII] | 64 | 0 | 1500 | 0 | 68 | 10 | 100 | > 100 | 50 | 38 |  | 0 |  |  |  | 
CC(C)N(CCOC1C(C2COC(C)(C)O2)OC2OC(C)(C)OC21)C(C)C (stereo not shown) [XVII] | 35 | 15 | 1000 | 40 | 73 | 0 | 70 | 100 | 32 | 32 |  | 0 |  |  |  | 
CCCN(CCC)CCOC1C(C2COC(C)(C)O2)OC2OC(C)(C)OC21 (stereo not shown) [XVI] | 41 | 29 | 750 | 0 | 23 | 0 | 12 | 100 |  | 24 |  | 0 | inhibited spasms induced by histamine at relatively low concentrations |  |  | 
CCN(CC)CCOC1C(C2COC(C)(C)O2)OC2OC(C)(C)OC21 (stereo not shown) [XV] | 58 | 8 | 3000 | 0 | 60 | 10 | 100 | > 100 | 20 | 4 |  | 0 |  |  |  | 
CC1(C)OCC(C2OC3OC(C)(C)OC3C2OCCN(Cc2ccccc2)Cc2ccccc2)O1 (stereo not shown) [XXI] | 17 | 25 | > 2000 | 60 | 29 | 0 |  |  |  | 19 |  |  |  |  |  | 
CC1(C)OCC(C2OC3OC(C)(C)OC3C2OCCN2CCOCC2)O1 (stereo not shown) [XX] | 65 | 14 | 1500 | 0 | 59 | 40 | > 100 | > 100 | 58 | 43 |  | 0 |  |  |  | 
C#CCOC1C(C2COC(C)(C)O2)OC2OC(C)(C)OC21 (stereo not shown) [X] | 65 | 107 | 1500 | 20 | 53 | 0 | 50 | 50 |  | 36 | retained | 0 |  | as potent as or more potent than aspirin and phenylbutazone | clearly more active than (I) | moderately active
